Measurements published in BindingDB's records for patent US20250127800 (Signet Therapeutics, 2025).

Each molecule was assayed against Focal adhesion kinase 1 (Homo sapiens, UniProt Q05397) (assay: In Vitro Enzymatic Inhibitory Activity Assay).
Chain of Focal adhesion kinase 1 (Q05397 whole entry): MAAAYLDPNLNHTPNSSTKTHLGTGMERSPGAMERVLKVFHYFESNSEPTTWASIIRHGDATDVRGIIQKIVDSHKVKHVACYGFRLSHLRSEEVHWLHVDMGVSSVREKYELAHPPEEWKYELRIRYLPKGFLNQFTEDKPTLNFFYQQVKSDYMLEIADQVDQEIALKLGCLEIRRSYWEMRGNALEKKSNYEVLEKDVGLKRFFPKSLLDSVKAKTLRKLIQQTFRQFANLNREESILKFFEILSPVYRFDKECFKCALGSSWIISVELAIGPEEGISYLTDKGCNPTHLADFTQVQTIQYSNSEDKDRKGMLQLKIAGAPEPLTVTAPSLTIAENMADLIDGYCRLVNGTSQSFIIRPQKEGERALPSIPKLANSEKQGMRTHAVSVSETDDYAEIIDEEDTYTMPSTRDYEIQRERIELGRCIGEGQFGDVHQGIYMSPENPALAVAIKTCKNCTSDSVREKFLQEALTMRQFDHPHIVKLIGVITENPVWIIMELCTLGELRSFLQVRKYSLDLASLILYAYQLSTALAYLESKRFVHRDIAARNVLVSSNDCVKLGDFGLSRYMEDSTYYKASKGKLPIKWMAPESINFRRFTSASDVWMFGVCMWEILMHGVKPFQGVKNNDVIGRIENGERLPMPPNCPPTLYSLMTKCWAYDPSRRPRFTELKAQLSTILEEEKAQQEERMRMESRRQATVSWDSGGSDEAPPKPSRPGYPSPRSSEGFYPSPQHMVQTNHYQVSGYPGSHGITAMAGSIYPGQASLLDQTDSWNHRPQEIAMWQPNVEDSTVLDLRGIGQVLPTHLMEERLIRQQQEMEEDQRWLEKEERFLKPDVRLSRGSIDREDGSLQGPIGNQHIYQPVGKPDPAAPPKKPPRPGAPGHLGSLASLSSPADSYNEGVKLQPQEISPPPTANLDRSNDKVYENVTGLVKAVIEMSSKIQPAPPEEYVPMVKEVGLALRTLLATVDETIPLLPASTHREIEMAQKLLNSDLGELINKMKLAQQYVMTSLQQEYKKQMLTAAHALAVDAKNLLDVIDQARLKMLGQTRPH
Molecule `C=CC(=O)NC1CCC(CNC(=O)c2ccc(Nc3ncc(C(F)(F)F)c(NCc4nccnc4N(C)S(C)(=O)=O)n3)c(OC)c2)CC1` (stereo unspecified) [US20250127800, Example 5] has an IC50 of 0.9 nM.
Work on `C=C(C)C(=O)N1CCCC(c2cccc(NCc3ccc(Nc4ncc(C(F)(F)F)c(Nc5ccccc5C(=O)NC)n4)cc3)c2)C1` (stereo unspecified) [US20250127800, Example 24] yielded an IC50 of 2.93 nM.
For `C=CC(=O)N1CCCC(NC(=O)c2ccc(Nc3ncc(C(F)(F)F)c(NCc4nccnc4N(C)S(C)(=O)=O)n3)c(OC)c2)C1` (stereo unspecified) [US20250127800, Example 3], the IC50 was 1.59 nM.
Molecule `C=CC(=O)N1CCCC(c2cccc(NCc3ccc(Nc4ncc(Cl)c(Nc5ccccc5C(=O)NC)n4)cc3)c2)C1` (stereo unspecified) [US20250127800, Example 15] has an IC50 of 7.84 nM.
Molecule `C=CC(=O)N1CCC(NC(=O)c2ccc(Nc3ncc(C(F)(F)F)c(NCc4nccnc4N(C)S(C)(=O)=O)n3)c(OC)c2)C1` (stereo unspecified) [US20250127800, Example 2] has an IC50 of 1.18 nM.
`C=CC(=O)N1CCCC(c2cccc(NCc3ccc(Nc4ncc(C(F)(F)F)c(Nc5ccccc5C(=O)NC)n4)c(OC)c3)c2)C1` (stereo unspecified) [US20250127800, Example 12] was tested, and the IC50 was 3.41 nM.
